For one assay, the target named is T1, PI3K δ (p110δ/p85α) (Homo sapiens, UniProt O00329).
T1 construct: purchased Upstate
Briefly: PI3K δ (p110δ/p85α) inhibition assay. In kind it is biochemical. As to the method:
(§1) IC50 values are measured using either a standard TLC assay for lipid kinase activity (described below) or a high-throughput membrane capture assay. Kinase reactions are performed by preparing a reaction mixture containing kinase, inhibitor (2% DMSO final concentration), buffer (25 mM HEPES, pH 7.4, 10 mM MgCl2), and freshly sonicated phosphatidylinositol (100 μg/ml). Reactions are initiated by the addition of ATP containing 10 μCi of γ-32P-ATP to a final concentration 10 or 100 μM and allowed to proceed for 5 minutes at room temperature. For TLC analysis, reactions are then terminated by the addition of 105 μl 1N HCl followed by 160 μl CHCl3:MeOH (1:1). The biphasic mixture is vortexed, briefly centrifuged, and the organic phase is transferred to a new tube using a gel loading pipette tip precoated with CHCl3. This extract is spotted on TLC plates and developed for 3-4 hours in a 65:35 solution of n-propanol: 1M acetic acid. The TLC plates are then dried, exposed to a phosphorimager screen (Storm, Amersham), and quantitated.
(§2) Other commercial kits or systems for assaying PI3-K activities are avaiable. The commercially available kits or systems can be used to screen for inhibitors and/or agonists of PI3-Ks including but not limited to PI 3-Kinase α, β, δ, and γ. Anr exemplary system is PI 3-Kinase (human) HTRF™ Assay from Upstate. […] Briefly, the assay is a time resolved FRET assay that indirectly measures PIP3 product formed by the activity of a PI3-K. The kinase reaction is performed in a microtitre plate (e.g., a 384 well microtitre plate). The total reaction volume is approximately 20 ul per well. In the first step, each well receives 2 ul of test compound in 20% dimethylsulphoxide resulting in a 2% DMSO final concentration. Next, approximately 14.5 ul of a kinase/PIP2 mixture (diluted in 1× reaction buffer) is added per well for a final concentration of 0.25-0.3 ug/ml kinase and 10 uM PIP2. The plate is sealed and incubated for 15 minutes at room temperature. To start the reaction, 3.5 ul of ATP (diluted in 1× reaction buffer) is added per well for a final concentration of 10 uM ATP. The plate is sealed and incubated for 1 hour at room temperature. The reaction is stopped by adding 5 ul of Stop Solution per well and then 5 ul of Detection Mix is added per well. The plate is sealed, incubated for 1 hour at room temperature, and then read on an appropriate plate reader. Data is analyzed and IC50s are generated using GraphPad Prism 5.

In another assay the target is T2, PI3K α (p110α/p85α) (Homo sapiens, UniProt P42336).
T2 construct: purchased Upstate
Kind of assay: PI3K α (p110α/p85α) inhibition assay. The assay is classed as biochemical. As to the method: as §1, with “Class I PI3-Ks can be either purchased (p110α/p85α, p110β/p85α, p110δ/p85α from Upstate, and p110γ from Sigma) or expressed as previously described (Knight at al., 2004). IC50” for “IC50”, “quantitated. For each compound, kinase activity is measured at 10-12 inhibitor concentrations representing two-fold dilutions from the highest concentration tested (typically, 200 μM).” for “quantitated.”
as §2

A further assay deals with T3, PI3K γ (p110γ) (Homo sapiens, UniProt P48736).
T3 construct: purchased Sigma
Kind of assay: PI3K γ (p110γ) inhibition assay. The assay is classed as biochemical. As to the method:
as §1, with “Class I PI3-Ks can be either purchased (p110α/p85α, p110β/p85α, p110δ/p85α from Upstate, and p110γ from Sigma) or expressed as previously described (Knight at al., 2004). IC50” for “IC50”, “quantitated. For each compound, kinase activity is measured at 10-12 inhibitor concentrations representing two-fold dilutions from the highest concentration tested (typically, 200 μM).” for “quantitated.”
as §2

The test system of a further assay is PC-3. Briefly: Tumor cell line proliferation assay (Alamar Blue), PC-3. Conditions: Homo sapiens; PC-3 cells. The assay is classed as cell-based. As to the method:
The ability of one or more subject compounds to inhibit tumor cell line proliferation is determined according to standard procedures known in the art. For instance, an in vitro cellular proliferation assay can be performed to measure the metabolic activity of live cells. The assay is performed in a 96 well microtiter plate using Alamar Blue reduction. Human tumor cell lines are obtained from ATCC (e.g., MCF7, U-87 MG, MDA-MB-468, PC-3), grown to confluency in T75 flasks, trypsinized with 0.25% trypsin, washed one time with Tumor Cell Media (DMEM+10% FBS), and plated in 90 ul at 5,000 cells/well in Tumor Cell Media. A compound disclosed herein is diluted in Tumor Cell Media and added in a 10 ul volume. Plates are incubated for 72 hours at 37 C and 5% CO2. A volume of 10 uL of Alamar Blue reagent is added to each well and plates are incubated for 3 hours at 37 C and 5% CO2. Alamar Blue fluoresce is read at 560Ex/590Em, and IC50 values are calculated using GraphPad Prism 5.

Another assay addresses T4, PI3K β (p110β/p85α) (Homo sapiens, UniProt P42338).
T4 construct: purchased Upstate
Briefly: PI3K β (p110β/p85α) inhibition assay. The assay is classed as biochemical. As to the method: as §1, with “Class I PI3-Ks can be either purchased (p110α/p85α, p110β/p85α, p110δ/p85α from Upstate, and p110γ from Sigma) or expressed as previously described (Knight at al., 2004). IC50” for “IC50”, “quantitated. For each compound, kinase activity is measured at 10-12 inhibitor concentrations representing two-fold dilutions from the highest concentration tested (typically, 200 μM).” for “quantitated.”
as §2

In the next assay the target is T5, mTOR (Homo sapiens, UniProt P42345).
T5 construct: purchased Invitrogen
Kind of assay: mTOR inhibition assay. In kind it is biochemical. As to the method: The compounds described herein can be tested against recombinant mTOR (Invitrogen) in an assay containing 50 mM HEPES, pH 7.5, 1 mM EGTA, 10 mM MgCl2, 2.5 mM, 0.01% Tween, 10 μM ATP (2.5 μCi of […]), and 3 μg/mL BSA. Rat recombinant PHAS-1/4EBP1 (Calbiochem; 2 mg/mL) is used as a substrate. Reactions are terminated by spotting onto nitrocellulose, which is washed with 1M NaCl/1% phosphoric acid (approximately 6 times, 5-10 minutes each). Sheets are dried and the transferred radioactivity quantitated by phosphorimaging.
Other kits or systems for assaying mTOR activity are commercially avaiable. For instance, one can use Invitrogen's LanthaScreen™ Kinase assay to test the inhibitors of mTOR disclosed herein. This assay is a time resolved FRET platform that measures the phosphorylation of GFP labeled 4EBP1 by mTOR kinase. The kinase reaction is performed in a white 384 well microtitre plate. The total reaction volume is 20 ul per well and the reaction buffer composition is 50 mM HEPES pH7.5, 0.01% Polysorbate 20, 1 mM EGTA, 10 mM MnCl2, and 2 mM DTT. In the first step, each well receives 2 ul of test compound in 20% dimethylsulphoxide resulting in a 2% DMSO final concentration. Next, 8 ul of mTOR diluted in reaction buffer is added per well for a 60 ng/ml final concentration. To start the reaction, 10 ul of an ATP/GFP-4EBP1 mixture (diluted in reaction buffer) is added per well for a final concentration of 10 uM ATP and 0.5 uM GFP-4EBP1. The plate is sealed and incubated for 1 hour at room temperature. The reaction is stopped by adding 10 ul per well of a Tb-anti-pT46 4EBP1 antibody/EDTA mixture (diluted in TR-FRET buffer) for a final concentration of 1.3 nM antibody and 6.7 mM EDTA. The plate is sealed, incubated for 1 hour at room temperature, and then read on a plate reader set up for LanthaScreen™ TR-FRET. Data is analyzed and IC50s are generated using GraphPad Prism 5.

One may read the IC50 as the concentration needed to halve the response being measured. For orientation: EC50 means the concentration that produces a half-maximal response. Read a low EC50 as greater potency.

Structures are written as SMILES. Read-outs that look alike come from different tables or passages of the source.

T4 sequence (P42338 whole entry): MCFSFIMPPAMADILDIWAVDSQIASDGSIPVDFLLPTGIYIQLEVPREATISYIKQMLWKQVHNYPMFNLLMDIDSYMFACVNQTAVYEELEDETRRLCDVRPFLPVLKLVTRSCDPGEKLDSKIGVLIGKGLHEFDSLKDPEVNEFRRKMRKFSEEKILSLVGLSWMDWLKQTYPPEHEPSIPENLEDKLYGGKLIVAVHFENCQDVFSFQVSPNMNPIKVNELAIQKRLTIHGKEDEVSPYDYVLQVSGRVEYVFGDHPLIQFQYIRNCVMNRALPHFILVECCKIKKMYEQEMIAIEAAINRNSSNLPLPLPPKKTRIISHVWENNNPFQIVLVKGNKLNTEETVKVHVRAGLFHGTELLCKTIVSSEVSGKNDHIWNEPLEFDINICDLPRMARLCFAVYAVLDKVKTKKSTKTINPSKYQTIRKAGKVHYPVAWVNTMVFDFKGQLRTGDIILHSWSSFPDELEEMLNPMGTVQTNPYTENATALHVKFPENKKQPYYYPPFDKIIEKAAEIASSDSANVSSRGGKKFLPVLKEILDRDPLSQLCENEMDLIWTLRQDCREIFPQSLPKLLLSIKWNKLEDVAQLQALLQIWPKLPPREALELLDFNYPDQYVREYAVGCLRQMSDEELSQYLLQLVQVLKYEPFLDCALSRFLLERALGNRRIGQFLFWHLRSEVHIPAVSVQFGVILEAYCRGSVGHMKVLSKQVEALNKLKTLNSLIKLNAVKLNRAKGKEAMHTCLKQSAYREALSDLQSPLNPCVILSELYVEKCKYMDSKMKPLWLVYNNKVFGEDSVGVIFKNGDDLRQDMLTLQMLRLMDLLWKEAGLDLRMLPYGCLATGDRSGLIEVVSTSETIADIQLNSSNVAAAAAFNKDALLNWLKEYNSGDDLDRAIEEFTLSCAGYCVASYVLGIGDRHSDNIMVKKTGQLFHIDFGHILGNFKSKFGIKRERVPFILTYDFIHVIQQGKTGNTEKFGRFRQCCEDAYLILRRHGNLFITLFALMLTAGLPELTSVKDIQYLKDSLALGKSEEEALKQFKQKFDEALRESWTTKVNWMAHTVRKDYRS
T4 sequence (P27986 whole entry partner): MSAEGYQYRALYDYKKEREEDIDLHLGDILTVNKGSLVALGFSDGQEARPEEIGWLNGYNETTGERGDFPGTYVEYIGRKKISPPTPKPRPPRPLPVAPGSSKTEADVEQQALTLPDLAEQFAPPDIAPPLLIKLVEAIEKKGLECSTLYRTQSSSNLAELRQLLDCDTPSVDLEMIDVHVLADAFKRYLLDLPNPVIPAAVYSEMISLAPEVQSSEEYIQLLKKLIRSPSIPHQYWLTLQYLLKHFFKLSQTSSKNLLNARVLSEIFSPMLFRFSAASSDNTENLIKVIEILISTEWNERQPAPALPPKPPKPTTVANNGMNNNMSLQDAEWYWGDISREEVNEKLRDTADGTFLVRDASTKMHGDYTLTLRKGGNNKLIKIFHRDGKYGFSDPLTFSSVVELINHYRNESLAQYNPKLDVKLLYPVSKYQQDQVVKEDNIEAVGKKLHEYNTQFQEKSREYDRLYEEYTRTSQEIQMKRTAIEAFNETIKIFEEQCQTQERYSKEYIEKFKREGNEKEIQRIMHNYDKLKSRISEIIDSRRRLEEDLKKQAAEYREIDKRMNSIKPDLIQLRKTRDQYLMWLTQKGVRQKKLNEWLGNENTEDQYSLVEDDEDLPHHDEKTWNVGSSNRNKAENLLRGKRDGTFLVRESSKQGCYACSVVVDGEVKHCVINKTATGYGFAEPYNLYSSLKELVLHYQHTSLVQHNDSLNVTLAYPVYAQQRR
T3 sequence (P48736 whole entry): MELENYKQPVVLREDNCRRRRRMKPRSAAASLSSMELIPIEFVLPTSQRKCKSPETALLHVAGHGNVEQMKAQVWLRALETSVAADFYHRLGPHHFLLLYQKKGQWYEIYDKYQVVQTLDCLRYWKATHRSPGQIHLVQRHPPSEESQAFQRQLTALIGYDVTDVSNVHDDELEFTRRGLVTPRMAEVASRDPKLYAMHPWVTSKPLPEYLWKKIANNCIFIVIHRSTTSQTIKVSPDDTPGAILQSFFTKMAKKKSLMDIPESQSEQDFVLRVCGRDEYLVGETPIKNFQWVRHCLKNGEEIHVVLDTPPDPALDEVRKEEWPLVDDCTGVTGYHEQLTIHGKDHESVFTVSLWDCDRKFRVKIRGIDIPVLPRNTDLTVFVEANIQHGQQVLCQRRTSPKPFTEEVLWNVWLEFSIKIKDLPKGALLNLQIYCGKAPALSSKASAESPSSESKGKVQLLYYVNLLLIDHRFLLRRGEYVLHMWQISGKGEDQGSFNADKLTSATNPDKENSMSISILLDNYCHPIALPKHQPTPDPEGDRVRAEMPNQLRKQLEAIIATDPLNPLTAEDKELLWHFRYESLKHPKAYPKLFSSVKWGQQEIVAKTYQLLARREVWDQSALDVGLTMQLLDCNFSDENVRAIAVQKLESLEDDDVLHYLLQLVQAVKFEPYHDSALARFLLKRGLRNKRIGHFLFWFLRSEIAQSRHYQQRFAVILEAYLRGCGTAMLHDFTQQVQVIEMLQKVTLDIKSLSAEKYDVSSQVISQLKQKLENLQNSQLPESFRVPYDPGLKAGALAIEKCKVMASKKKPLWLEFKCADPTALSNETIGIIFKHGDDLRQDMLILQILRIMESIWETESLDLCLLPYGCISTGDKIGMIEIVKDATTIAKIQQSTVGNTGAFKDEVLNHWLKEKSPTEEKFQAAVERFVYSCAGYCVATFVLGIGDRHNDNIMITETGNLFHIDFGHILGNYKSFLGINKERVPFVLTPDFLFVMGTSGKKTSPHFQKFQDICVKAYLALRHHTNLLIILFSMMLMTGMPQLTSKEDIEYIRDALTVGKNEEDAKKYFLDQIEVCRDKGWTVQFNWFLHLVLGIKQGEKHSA
T1 sequence (O00329 whole entry): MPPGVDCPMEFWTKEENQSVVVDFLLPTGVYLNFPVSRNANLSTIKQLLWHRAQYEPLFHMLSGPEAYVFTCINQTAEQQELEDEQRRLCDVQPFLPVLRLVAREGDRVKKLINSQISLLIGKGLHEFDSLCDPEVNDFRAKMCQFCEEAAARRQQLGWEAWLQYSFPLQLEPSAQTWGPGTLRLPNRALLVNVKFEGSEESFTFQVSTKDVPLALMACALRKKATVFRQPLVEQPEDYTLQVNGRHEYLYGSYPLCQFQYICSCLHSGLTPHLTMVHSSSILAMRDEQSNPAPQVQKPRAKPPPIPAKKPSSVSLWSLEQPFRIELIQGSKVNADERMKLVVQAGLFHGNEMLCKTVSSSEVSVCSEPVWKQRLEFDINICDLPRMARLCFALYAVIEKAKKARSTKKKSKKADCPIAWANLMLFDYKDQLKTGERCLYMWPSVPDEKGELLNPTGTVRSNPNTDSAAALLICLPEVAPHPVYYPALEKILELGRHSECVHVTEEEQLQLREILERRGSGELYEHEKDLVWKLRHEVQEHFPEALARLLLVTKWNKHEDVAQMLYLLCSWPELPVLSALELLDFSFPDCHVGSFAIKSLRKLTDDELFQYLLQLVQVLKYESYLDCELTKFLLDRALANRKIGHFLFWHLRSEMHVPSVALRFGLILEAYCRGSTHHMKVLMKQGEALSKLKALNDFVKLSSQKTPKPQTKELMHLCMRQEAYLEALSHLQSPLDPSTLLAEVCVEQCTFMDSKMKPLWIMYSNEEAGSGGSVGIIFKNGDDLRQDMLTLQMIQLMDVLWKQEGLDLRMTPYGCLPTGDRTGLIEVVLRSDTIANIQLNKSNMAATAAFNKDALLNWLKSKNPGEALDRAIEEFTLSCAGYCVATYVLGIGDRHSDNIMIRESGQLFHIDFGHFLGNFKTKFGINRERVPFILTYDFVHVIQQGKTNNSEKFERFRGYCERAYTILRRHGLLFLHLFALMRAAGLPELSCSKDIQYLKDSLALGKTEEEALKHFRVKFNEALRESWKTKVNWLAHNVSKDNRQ
T1 sequence (P27986 whole entry partner): as the sequence (P27986 whole entry partner) above
T2 sequence (P42336 whole entry): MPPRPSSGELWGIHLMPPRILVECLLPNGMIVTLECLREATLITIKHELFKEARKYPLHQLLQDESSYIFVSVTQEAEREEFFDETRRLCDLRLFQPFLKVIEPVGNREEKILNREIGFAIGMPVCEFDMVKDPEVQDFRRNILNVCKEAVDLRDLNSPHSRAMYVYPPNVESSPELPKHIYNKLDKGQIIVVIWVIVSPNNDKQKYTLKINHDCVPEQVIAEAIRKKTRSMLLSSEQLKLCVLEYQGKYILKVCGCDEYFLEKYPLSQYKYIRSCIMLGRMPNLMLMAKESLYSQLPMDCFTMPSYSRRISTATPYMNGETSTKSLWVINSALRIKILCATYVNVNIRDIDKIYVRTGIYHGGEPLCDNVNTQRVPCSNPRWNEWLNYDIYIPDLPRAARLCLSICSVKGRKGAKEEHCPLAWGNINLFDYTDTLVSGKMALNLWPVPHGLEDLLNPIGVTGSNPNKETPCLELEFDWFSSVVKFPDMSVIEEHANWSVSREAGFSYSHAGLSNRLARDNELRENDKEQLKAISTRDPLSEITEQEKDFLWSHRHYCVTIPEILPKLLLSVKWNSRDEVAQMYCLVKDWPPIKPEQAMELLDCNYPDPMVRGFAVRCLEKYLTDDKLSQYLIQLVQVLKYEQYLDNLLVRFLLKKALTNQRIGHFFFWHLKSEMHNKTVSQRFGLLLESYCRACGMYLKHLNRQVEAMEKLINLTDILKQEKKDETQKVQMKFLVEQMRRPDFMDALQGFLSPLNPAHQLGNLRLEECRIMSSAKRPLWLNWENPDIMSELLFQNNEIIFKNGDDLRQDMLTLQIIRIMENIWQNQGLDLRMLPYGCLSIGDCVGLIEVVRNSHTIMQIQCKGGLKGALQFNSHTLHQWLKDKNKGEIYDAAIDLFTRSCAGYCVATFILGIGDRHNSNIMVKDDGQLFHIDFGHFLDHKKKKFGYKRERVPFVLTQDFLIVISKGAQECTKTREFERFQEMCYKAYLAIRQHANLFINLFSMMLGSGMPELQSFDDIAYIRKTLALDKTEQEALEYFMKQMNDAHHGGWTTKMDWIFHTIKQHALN
T2 sequence (P27986 whole entry partner): as the sequence (P27986 whole entry partner) above

On to `Cc1nc(N)nc2ccc(-c3cccc(O)c3)cc12` [Compound 4], for which the IC50 at PI3K δ (p110δ/p85α) (read-out: PI3K δ IC50) is less than 100 nM; against PI3K α (p110α/p85α) it was less than 500 nM; against PI3K γ (p110γ), less than 100 nM; on PI3K β (p110β/p85α), less than 500 nM; against mTOR, greater than 1000 nM. Besides, in the assay with PC-3, the EC50 was no more than 20 µM.
For the compound `Cc1nc(N)nc2ccc(-c3cnc4[nH]ccc4c3)cc12` [Compound 5], the results for the 50% inhibitory concentration (IC50) on PI3K α (p110α/p85α) and at mTOR were less than 1000 nM and greater than 1000 nM, respectively. In addition, the EC50 in the assay on PC-3 is no more than 50 µM.
Consider `CNc1nc(C)c2cc(-c3ccc(O)c(F)c3)ccc2n1` [Compound 11], for which the concentration for half-maximal inhibition (IC50) was less than 1000 nM at PI3K α (p110α/p85α) and greater than 1000 nM against mTOR. Moreover, the EC50 in the assay with PC-3 is no more than 50 µM.
In the case of `Cc1nc(Nc2cccnc2)nc2ccc(-c3cccc(O)c3)cc12` [Compound 6], the 50% inhibitory concentration (IC50) is less than 100 nM at PI3K δ (p110δ/p85α) (read-out: PI3K δ IC50); less than 100 nM on PI3K α (p110α/p85α); less than 100 nM against PI3K γ (p110γ); greater than 1000 nM at PI3K β (p110β/p85α); greater than 1000 nM against mTOR. Also, the EC50 with PC-3 is no more than 50 µM.
Regarding `CNc1nc(C)c2cc(-c3ccc(O)c(Cl)c3)ccc2n1` [Compound 10], the 50% inhibitory concentration (IC50) against PI3K α (p110α/p85α) is less than 1000 nM; against mTOR, greater than 1000 nM. In addition, the EC50 with PC-3 is no more than 20 µM.
As for `Cc1nc(Nc2cccnc2)nc2ccc(-c3cc(O)cc(F)c3)cc12` [Compound 7], the IC50 on PI3K δ (p110δ/p85α) (read-out: PI3K δ IC50) is less than 100 nM; against PI3K α (p110α/p85α), less than 100 nM; at PI3K γ (p110γ), less than 100 nM; at PI3K β (p110β/p85α), greater than 1000 nM; at mTOR, greater than 1000 nM. Also, in the assay on PC-3, the EC50 is no more than 20 µM.
In the case of `CNc1nc(C)c2cc(-c3cnc4[nH]ccc4c3)ccc2n1` [Compound 2], the half-maximal inhibitory concentration (IC50) at PI3K δ (p110δ/p85α) (read-out: PI3K δ IC50) is greater than 1000 nM; against PI3K α (p110α/p85α) it was less than 1000 nM; against PI3K γ (p110γ), less than 500 nM; against PI3K β (p110β/p85α), greater than 1000 nM; on mTOR it was greater than 1000 nM. The compound further displayed an EC50 with PC-3 of no more than 50 µM.
Take `CNc1nc(C)c2cc(-c3cccc(O)c3)ccc2n1` [Compound 1]: the IC50 was less than 500 nM at PI3K δ (p110δ/p85α) (read-out: PI3K δ IC50); less than 500 nM against PI3K α (p110α/p85α); less than 100 nM against PI3K γ (p110γ); greater than 1000 nM at PI3K β (p110β/p85α); greater than 1000 nM against mTOR. In addition, the EC50 with PC-3 is no more than 50 µM.
As for `CNc1nc(C)c2cc(-c3cc(O)cc(F)c3)ccc2n1` [Compound 8], the IC50 against PI3K δ (p110δ/p85α) is less than 100 nM; against PI3K α (p110α/p85α) it was less than 500 nM; on PI3K γ (p110γ), less than 100 nM; against PI3K β (p110β/p85α), less than 1000 nM; on mTOR, greater than 1000 nM. In addition, the concentration giving a half-maximal response (EC50) in the assay with PC-3 is no more than 20 µM.
Take `CNc1nc(C)c2cc(-c3ccc(F)c(O)c3)ccc2n1` [Compound 9]: the IC50 was less than 1000 nM on PI3K α (p110α/p85α) and greater than 1000 nM on mTOR. In the assay on PC-3, this compound gave an EC50 of no more than 20 µM.
The corresponding values for `Nc1ncc2cc(-c3cccc(O)c3)ccc2n1` [Compound 3] are less than 500 nM, greater than 1000 nM and no more than 50 µM.

For the origin of these results see US9359349B2, “Substituted quinazolines as kinase inhibitors” (Intellikine LLC, priority 2007, dated 2016).
